Read-outs that look alike come from different tables or passages of the source. *1 amine or outer side, *2 acyl side, *3 side chain or, on linkers, in order; H or OH if unused. Where a SMILES comes first, the peptide text is derived from it. Bridges are numbered along the chain shown (N, C = ends). [ ]: non-standard residue; d: D form. The star is where a group is joined. pTerphenylCO(4''-OnC5H11) = CCCCCOc1ccc(-c2ccc(-c3ccc(C(=O)*)cc3)cc2)cc1; Orn(4R-OH,5R-OH) = O=C([C@H](C[C@@H](O)[C@@H](O)N[*:3])N[*:1])[*:2]; hTyr(3S-OH,4S-OH) = N[C@H](C(=O)O)[C@H](O)[C@@H](O)c1ccc(O)cc1; Pro(3S-OH,4S-Me) = C[C@H]1CN[C@H](C(=O)O)[C@H]1O; Hyp = O=C(O)[C@@H]1C[C@@H](O)CN1
How the values were obtained:
[1] = Pharmacokinetics (oral bioavailability) following oral administration in beagle dogs; assay type: in vivo; design: key to Improvement (ratio of % oral bioavailability to saline): NI = no improvement in oral bioavailability in comparison to saline; conditions: for % BA in saline: oral about 7-10 mg/kg, formulation 11 (saline); for % BA / Improvement (ratio of % oral bioavailability to saline): oral
Experimental: Echinocandin class compounds were administered to beagle dogs weighing approximately 6-10 kg. Each animal received the appropriate prepared test article in a single oral capsule dose at a target dose level of about 7-10 mg/kg. Immediately after dosing, each animal was offered 20 mL-30 mL of water orally (Groups 1-4) or 30 mL of water orally to assist in swallowing the capsule.
Animals were treated and blood samples were drawn and analyzed as provided in Example 1.
The bioavailability of each oral dose formulation was estimated by comparison to intravenous plasma concentration data in dogs from Example 1. The results provided in Table 3 show the oral bioavailability for the echinocandin class compound in saline (formulation 11), and the improvement over saline with the use of a formulation of the invention.

[2] = Stability in monkey plasma; assay type: in vitro ADME
Experimental: (§1) Stock solutions of compound 22 and anidulafungin were prepared in DMSO at a concentration of 1 mg/mL. Plasma samples were prepared by mixing plasma with 10% volume of 1 M sodium phosphate, pH 7.4, to minimize pH fluctuation, and stock solution to produce plasma samples containing approximately 10,000 ng/mL compound 22 or anidulafungin. For the stability experiments in PBS buffer, plasma was replaced with phosphate buffered saline, pH 7.4. The DMSO concentration was 1% in the final incubation. Multiple individual aliquots (0.5 mL each) were prepared, capped, and incubated at 37° C. At each stability time point, the reaction was stopped by removing the sample from the incubator and adding 0.5 mL of acetonitrile containing internal standard. Samples were centrifuged for approximately 5 minutes at 10000 rpm to precipitate the proteins. Stability was measured in five different matrices (i.e. rat plasma, dog plasma, monkey plasma, human plasma, and PBS). An aliquot (100 μL) of supernatant of each sample was assayed by HPLC. The percentage of anidulafungin and compound 22 remaining at each time point was calculated by dividing the peak area ratio at each time point by the peak area ratio at time zero.

[3] = Stability in human plasma; assay type: in vitro ADME
Experimental: as §1

[4] = Circulating half-life in dog; assay type: in vivo; conditions: assays conducted by applicant
[5] = Pharmacokinetics following intravenous administration in beagle dogs; assay type: in vivo; conditions: 1.4 mg/kg IV slow bolus
Experimental: Echinocandin class compounds were administered to beagle dogs weighing approximately 6-10 kg. Each compound was dosed at 1.4 mg/kg in aqueous saline (with or without 0.5% Tween) over course of 1-10 minutes. […] The dogs were fasted at least 12 hours prior to each dosing and offered food after the 4-hour blood sample was taken; water was withheld for 1 hour prior to and 4 hours following each dosing event. The dose for each animal was based on its most recent body weight. The test article was injected intravenously via a catheter placed in the cephalic vein as a slow bolus.
Blood was collected via the jugular vein. All blood samples (1 mL each) were collected into K3EDTA tubes. Following blood collection, the samples were immediately inverted several times and were held on wet ice pending centrifugation. The samples were centrifuged within 30 minutes of collection under refrigeration (˜5° C. for 10 minutes at 2000 g) to obtain plasma. The plasma was frozen immediately on dry ice after separation. The plasma samples were stored at approximately ˜70° C. until analysis.
Plasma (100 μL) was precipitated with 400 μL of 0.1% formic acid in acetonitrile containing the internal standard (100 ng/mL pneumocandin). The samples were then capped and vortexed for about 30 seconds followed by centrifugation at 14,000 rpm at room temperature for 10 minutes. Following centrifugation 200 μL of supernatant was transferred to plastic autosampler vials containing 200 μL of 0.1% formic acid in water and vortexed. Samples were then analyzed by LCMSMS.
All pharmacokinetic calculations were performed using WinNonlin version 4.1 (Pharsight Corp) by noncompartmental analysis.

[6] = Circulating half-life in monkey; assay type: in vivo; conditions: assays conducted by applicant
Stability in dog plasma = assay type: in vitro ADME
Experimental: as §1

Stability in rat plasma = assay type: in vitro ADME
Experimental: as §1

[7] = Circulating half-life in chimpanzee; assay type: in vivo; conditions: assays conducted by applicant
[8] = Stability in phosphate buffered saline (PBS); assay type: physicochemical
Experimental: as §1

CC(=O)[O-].CCCCCOc1ccc(-c2ccc(-c3ccc(C(=O)NC4CC(O)C(OCC[N+](C)(C)C)NC(=O)C5C(O)C(C)CN5C(=O)C(C(C)O)NC(=O)C(C(O)C(O)c5ccc(O)cc5)NC(=O)C5CC(O)CN5C(=O)C(C(C)O)NC4=O)cc3)cc2)cc1 (centres unmarked) [Compound 22]
% BA in saline [1]: 3.50% | % BA ([1]; formulation 1): (8.21%) | Improvement (ratio of % oral bioavailability to saline) ([1]; formulation 1): 2.3 | % BA ([1]; formulation 3): (9.76%) | Improvement (ratio of % oral bioavailability to saline) ([1]; formulation 3): 2.8 | % BA ([1]; formulation 5): (12.3%) | Improvement (ratio of % oral bioavailability to saline) ([1]; formulation 5): 3.5 | % BA ([1]; formulation 7): (12.2%) | Improvement (ratio of % oral bioavailability to saline) ([1]; formulation 7): 3.5 | Improvement (ratio of % oral bioavailability to saline) ([1]; formulation 8): NI | Improvement (ratio of % oral bioavailability to saline) ([1]; formulation 9): NI | Improvement (ratio of % oral bioavailability to saline) ([1]; formulation 10): NI | Improvement (ratio of % oral bioavailability to saline) ([1]; formulation 12): NI | % BA ([1]; formulation 13): (8.80%) | Improvement (ratio of % oral bioavailability to saline) ([1]; formulation 13): 2.5 | % BA ([1]; formulation 14): (15.0%) | Improvement (ratio of % oral bioavailability to saline) ([1]; formulation 14): 4.3 | % BA ([1]; formulation 15): (13.4%) | Improvement (ratio of % oral bioavailability to saline) ([1]; formulation 15): 3.8 | % BA ([1]; formulation 16): (5.50%) | Improvement (ratio of % oral bioavailability to saline) ([1]; formulation 16): 1.5 | % BA ([1]; formulation 17): (11.8%) | Improvement (ratio of % oral bioavailability to saline) ([1]; formulation 17): 3.3 | % remaining ([2]; monkey, plasma, 0 h): 100% | % remaining ([2]; monkey, plasma, 1 h): 109% | % remaining ([2]; monkey, plasma, 2 h): 110% | % remaining ([2]; monkey, plasma, 4 h): 143% | % remaining ([2]; monkey, plasma, 8 h): 115% | % remaining ([2]; monkey, plasma, 21 h): 104% | % remaining ([2]; monkey, plasma, 44 h): 93.5% | % remaining ([3]; human, plasma, 0 h): 100% | % remaining ([3]; human, plasma, 1 h): 98.5% | % remaining ([3]; human, plasma, 2 h): 101% | % remaining ([3]; human, plasma, 4 h): 125% | % remaining ([3]; human, plasma, 8 h): 97.5% | % remaining ([3]; human, plasma, 21 h): 95.7% | % remaining ([3]; human, plasma, 44 h): 93.3% | Half-life [4]: 53 h | AUC [5]: 48700 ng·h/mL | Cmax [5]: 1570 ng/mL | Mean clearance [5]: 0.301 mL/min/kg | T1/2 [5]: 53.1 h | Volume of Distribution [5]: 1.36 L/kg | Half-life [6]: 40 h | % remaining (Stability in dog plasma; dog, plasma, 0 h): 100% | % remaining (Stability in dog plasma; dog, plasma, 1 h): 97.9% | % remaining (Stability in dog plasma; dog, plasma, 2 h): 107% | % remaining (Stability in dog plasma; dog, plasma, 4 h): 119% | % remaining (Stability in dog plasma; dog, plasma, 8 h): 94.0% | % remaining (Stability in dog plasma; dog, plasma, 21 h): 87.3% | % remaining (Stability in dog plasma; dog, plasma, 44 h): 78.6% | % remaining (Stability in rat plasma; rat, plasma, 0 h): 100% | % remaining (Stability in rat plasma; rat, plasma, 1 h): 103% | % remaining (Stability in rat plasma; rat, plasma, 2 h): 106% | % remaining (Stability in rat plasma; rat, plasma, 4 h): 138% | % remaining (Stability in rat plasma; rat, plasma, 8 h): 99.3% | % remaining (Stability in rat plasma; rat, plasma, 21 h): 96.5% | % remaining (Stability in rat plasma; rat, plasma, 44 h): 91.2% | Half-life [7]: 81 h | % remaining ([8]; buffer, 0 h, pH 7.4): 100% | % remaining ([8]; buffer, 1 h, pH 7.4): 105% | % remaining ([8]; buffer, 2 h, pH 7.4): 103% | % remaining ([8]; buffer, 4 h, pH 7.4): 107% | % remaining ([8]; buffer, 8 h, pH 7.4): 101% | % remaining ([8]; buffer, 21 h, pH 7.4): 96.3% | % remaining ([8]; buffer, 44 h, pH 7.4): 96.1%

CCCCCOc1ccc(-c2ccc(-c3ccc(C(=O)N[C@H]4C[C@@H](O)[C@@H](O)NC(=O)[C@@H]5[C@@H](O)[C@@H](C)CN5C(=O)[C@H]([C@@H](C)O)NC(=O)[C@H]([C@H](O)[C@@H](O)c5ccc(O)cc5)NC(=O)[C@@H]5C[C@@H](O)CN5C(=O)[C@H]([C@@H](C)O)NC4=O)cc3)cc2)cc1 [Anidulafungin, anidulafungin, reference compound] ({pTerphenylCO(4''-OnC5H11)}-[Orn(4R-OH,5R-OH)]T[Hyp][hTyr(3S-OH,4S-OH)]T[Pro(3S-OH,4S-Me)]; lactam 1-C)
% BA in saline [1]: 7.80% | % BA ([1]; formulation 1): (14.3%) | Improvement (ratio of % oral bioavailability to saline) ([1]; formulation 1): 1.8 | Improvement (ratio of % oral bioavailability to saline) ([1]; formulation 2): NI | % BA ([1]; formulation 3): (9.80%) | Improvement (ratio of % oral bioavailability to saline) ([1]; formulation 3): 1.3 | Improvement (ratio of % oral bioavailability to saline) ([1]; formulation 4): NI^4 | % BA ([1]; formulation 5): (16.5%) | Improvement (ratio of % oral bioavailability to saline) ([1]; formulation 5): 2.1 | Improvement (ratio of % oral bioavailability to saline) ([1]; formulation 6): NI | % remaining ([2]; monkey plasma, 37° C., 0 h): 100% | % remaining ([2]; monkey plasma, 37° C., 1 h): 106% | % remaining ([2]; monkey plasma, 37° C., 2 h): 111% | % remaining ([2]; monkey plasma, 37° C., 4 h): 68.1% | % remaining ([2]; monkey plasma, 37° C., 8 h): 76.0% | % remaining ([2]; monkey plasma, 37° C., 21 h): 22.4% | % remaining ([2]; monkey plasma, 37° C., 44 h): 13.8% | % remaining ([3]; human plasma, 37° C., 0 h): 100% | % remaining ([3]; human plasma, 37° C., 1 h): 102% | % remaining ([3]; human plasma, 37° C., 2 h): 98.0% | % remaining ([3]; human plasma, 37° C., 4 h): 61.8% | % remaining ([3]; human plasma, 37° C., 8 h): 72.0% | % remaining ([3]; human plasma, 37° C., 21 h): 51.2% | % remaining ([3]; human plasma, 37° C., 44 h): 7.3% | Half-life ([4]; beagle, in vivo, read-out: Half-life (converted)): 12 h | Mean clearance [5]: 0.785 mL/min/kg | T1/2 [5]: 11.6 h | Volume of Distribution [5]: 0.779 L/kg | AUC ([5]; dog, in vivo, read-out: AUC): 27800 ng·h/mL | Cmax ([5]; dog, in vivo, read-out: Cmax): 3230 ng/mL | Half-life ([6]; in vivo, read-out: Half-life (converted)): 8 h | % remaining (Stability in dog plasma; dog plasma, 37° C., 0 h): 100% | % remaining (Stability in dog plasma; dog plasma, 37° C., 1 h): 100% | % remaining (Stability in dog plasma; dog plasma, 37° C., 2 h): 94.8% | % remaining (Stability in dog plasma; dog plasma, 37° C., 4 h): 77.1% | % remaining (Stability in dog plasma; dog plasma, 37° C., 8 h): 81.1% | % remaining (Stability in dog plasma; dog plasma, 37° C., 21 h): 47.2% | % remaining (Stability in dog plasma; dog plasma, 37° C., 44 h): 14.6% | % remaining (Stability in rat plasma; rat plasma, 37° C., 0 h): 100% | % remaining (Stability in rat plasma; rat plasma, 37° C., 1 h): 84.3% | % remaining (Stability in rat plasma; rat plasma, 37° C., 2 h): 76.5% | % remaining (Stability in rat plasma; rat plasma, 37° C., 4 h): 45.6% | % remaining (Stability in rat plasma; rat plasma, 37° C., 8 h): 23.2% | % remaining (Stability in rat plasma; rat plasma, 37° C., 21 h): 7.3% | % remaining (Stability in rat plasma; rat plasma, 37° C., 44 h): 7.4% | Half-life ([7]; in vivo, iv, 1 mg/kg, read-out: Half-life (converted)): 30 h | % remaining ([8]; PBS pH 7.4, 37° C., 0 h): 100% | % remaining ([8]; PBS pH 7.4, 37° C., 1 h): 100% | % remaining ([8]; PBS pH 7.4, 37° C., 2 h): 97.8% | % remaining ([8]; PBS pH 7.4, 37° C., 4 h): 87.4% | % remaining ([8]; PBS pH 7.4, 37° C., 8 h): 86.0% | % remaining ([8]; PBS pH 7.4, 37° C., 21 h): 68.9% | % remaining ([8]; PBS pH 7.4, 37° C., 44 h): 41.9%
